# Entries after “also recorded” stand apart in the source; their conditions may differ. Like-named read-outs stand apart in the source and are kept apart here.
# Experiments:
# [1] = test system: mouse model of CLP-induced septic shock; assay: Survival in CLP-induced sepsis model, inhibitors given intraperitoneally; type: in vivo, male C57BL/6J mice; details: for Survival (in words): i.p. 1 h after CLP, SAHA 50 mg/kg, Cl-amidine 80 mg/kg, up to 10 days, compared with DMSO vehicle
# Method: Three experiments were carried out. In experiment I, HL-60 neutrophilic cells grown on a coverslip were treated with LPS (100 ng/ml) in the presence or absence of SAHA (5 […]]) for 3 h, and subjected to immuno-staining with anti-Cit H3 antibody to assess effect of SAHA on Cit H3 production under a fluorescence microscope. The ratio of Cit H3 positive cells was calculated as mean±SD (n=3). In experiment II, male C57BL/6J mice were subjected to CLP, and 1 hour later randomly divided into three groups for intraperitoneal injection as follows: (1) dimethyl sulfoxide (DMSO), (2) SAHA (50 mg/kg) in DMSO, and ([…]). In a separate experiment III, the male C57BL/6J mice were divided into control and treatment groups, and subjected to CLP. One hour later, immunoglobulin (IgG) and Cit H3 antibody (20 mg/kg iv; n=5/group) were injected into the control and treatment groups, respectively. All survival was monitored for 5-10 days.
# Animals. Male C57B1/6J mice (6-8 weeks) weighing 25-30 g were purchased from Jackson Labs (Bar Harbor, Me.). All animals were housed in plastic cages and had access to chow and water throughout the experiment. They were kept at room temperature (24±2° C.) and exposed to alternative cycles of 12 h light and darkness. During the experiments the animals were monitored up to 10 days, and survival rate was compared between the experimental and control groups.
# CLP-induced sepsis model. The CLP murine model,^15 modified as described previously, was used to induce fecal peritonitis.^16 In brief, peritoneal cavity was opened under inhaled isoflurane anesthesia. […]
# Administration of inhibitors and experimental design. […] Mortality was recorded for up to 10 days post procedure.
# Statistical analysis. Statistical differences were determined by Student t tests and ANOVA for two group and multiple group comparisons respectively (SPSS™ statistical software package, Chicago, Ill.). Kaplan-Meier survival curves were analyzed by using the MedCalc™ Statistical Software (Mariakerke, Belgium) for the in vivo studies. […]
# Cit H3 = assay: Production of Cit H3 after inhibition of PAD activity (data not shown)
# [2] = test system: collagen-induced arthritis; details: murine; cited from earlier work
# HL-60 neutrophilic cells = assay: LPS-induced Cit H3 production and NETs formation in HL-60 cells, immunostaining with anti-Cit H3 antibody; type: cell-based; details: LPS 100 ng/ml, 3 h
# Method: Three experiments were carried out. In experiment I, HL-60 neutrophilic cells grown on a coverslip were treated with LPS (100 ng/ml) in the presence or absence of SAHA (5 […]]) for 3 h, and subjected to immuno-staining with anti-Cit H3 antibody to assess effect of SAHA on Cit H3 production under a fluorescence microscope. The ratio of Cit H3 positive cells was calculated as mean±SD (n=3). In experiment II, male C57BL/6J mice were subjected to CLP, and 1 hour later randomly divided into three groups for intraperitoneal injection as follows: (1) dimethyl sulfoxide (DMSO), (2) SAHA (50 mg/kg) in DMSO, and (3) Cl-amidine ([…]) in DMSO (n=10/group). In a separate experiment III, the male C57BL/6J mice were divided into control and treatment groups, and subjected to CLP. One hour later, immunoglobulin (IgG) and Cit H3 antibody (20 mg/kg iv; n=5/group) were injected into the control and treatment groups, respectively. All survival was monitored for 5-10 days.
# Cell culture and treatment. HL-60 cells obtained from American Type Culture Collection (ATCC) were maintained in Iscove's modified DMEM medium (Invitrogen Life Technologies, Carlsbad, Calif.) supplemented with 20% fetal bovine serum (FBS). […] The ratio of Cit H3 positive stained cells to all cells was counted and calculated as mean±SD from three individual experiments.
# [3] = test system: mouse model of CLP-induced septic shock; details: literature reference 10; cited from earlier work
# LPS-induced shock = details: rodent; cited from earlier work
SMILES,"Survival ([1]; 80 mg/kg i.p. 1 h after CLP, monitored 10 days, n=10, DMSO vehicle 0%) [%]",Survival (in words) [1],Production of Cit H3 (Cit H3),Severity of collagen-induced arthritis [2],"LPS-induced Cit H3 production (ratio of Cit H3 positive cells to all cells) (HL-60 neutrophilic cells; ATRA-differentiated HL-60 cells, with or without SAHA, n=3, P<0.05)",NETs formation after LPS insult (HL-60 neutrophilic cells; HL-60 neutrophilic cells),Survival [3],Survival (LPS-induced shock)
NC(=O)[C@H](CCCN=C(N)CCl)NC(=O)c1ccccc1 [Cl-amidine],42.5,notably improved long term survival; also recorded: significantly improved survival,reduce the production of Cit H3,reduce the severity,,,,
"O=C(CCCCCCC(=O)Nc1ccccc1)NO [SAHA, suberoylanilide hydroxamic acid]",,notably improved long term survival,,,inhibited H3 citrullination significantly; also recorded: suppresses LPS-induced Cit H3 production,significantly inhibited,improves survival,significantly improves survival
